Test results reported in the supplement of paper PMC10307832.

Assays:
Assay in all cases: relative viability (nuclei count vs DMSO), 5 days (fraction); higher = more cells survive
[1] = compound: O=S(=O)(c1ccccc1)N(CC(F)(F)F)c1ccc(C(O)(C(F)(F)F)C(F)(F)F)cc1 + CC(=O)c1c(C)c2cnc(Nc3ccc(N4CCNCC4)cn3)nc2n(C2CCCC2)c1=O [Palbociclib] (partner 0.5 µM)
How it was run: (§1)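 After 5 days of treatment, lung cancer cells in 1536-well plates were fixed and stained in a single step (final 0.05% Triton X-100, 1% formaldehyde, 1 ug/ml Hoechst) and their nuclei counted on 4× images. Treatment had been applied by pin tool the day after seeding as one drug alone or as a fixed anchor-drug dose with five library-drug doses (not always all listed) in √10 steps. Relative viability is the nuclei count of treated wells divided by that of vehicle wells, and values are medians of duplicate plates.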

[2] = compound: C1=CC2=C(C=CC(=C2)C=C3C(=O)NC(=NCC4=CC=CS4)S3)N=C1 [RO-3306] + CS(=O)(=O)N1CCN(Cc2cc3nc(-c4cccc5[nH]ncc45)nc(N4CCOCC4)c3s2)CC1 [Pictilisib] (partner 1 µM)
How it was run: as §1

[3] = compound: C1=CC2=C(C=CC(=C2)C=C3C(=O)NC(=NCC4=CC=CS4)S3)N=C1 [RO-3306] + O=C(c1cc(Cc2n[nH]c(=O)c3ccccc23)ccc1F)N1CCN(C(=O)C2CC2)CC1 [Olaparib] (partner 8 µM)
How it was run: as §1

[4] = compound: O=S(=O)(c1ccccc1)N(CC(F)(F)F)c1ccc(C(O)(C(F)(F)F)C(F)(F)F)cc1 + O=C(c1cc(Cc2n[nH]c(=O)c3ccccc23)ccc1F)N1CCN(C(=O)C2CC2)CC1 [Olaparib] (partner 8 µM)
How it was run: as §1

[5] = compound: O=S(=O)(c1ccccc1)N(CC(F)(F)F)c1ccc(C(O)(C(F)(F)F)C(F)(F)F)cc1 + NC(=O)Nc1cc(-c2cccc(F)c2)sc1C(=O)N[C@H]1CCCNC1 [AZD7762] (partner 0.2 µM)
How it was run: as §1

Cell Line	relative viability ([1]; first compound 0.8 µM)	relative viability ([1]; first compound 2.53 µM)	relative viability ([1]; first compound 8 µM)	relative viability ([2]; first compound 0.01 µM)	relative viability ([2]; first compound 0.03162 µM)	relative viability ([2]; first compound 0.1 µM)	relative viability ([2]; first compound 0.3162 µM)	relative viability ([2]; first compound 1 µM)	relative viability ([3]; first compound 0.01 µM)	relative viability ([3]; first compound 0.03162 µM)	relative viability ([3]; first compound 0.1 µM)	relative viability ([3]; first compound 0.3162 µM)	relative viability ([3]; first compound 1 µM)	relative viability ([4]; first compound 0.8 µM)	relative viability ([4]; first compound 2.53 µM)	relative viability ([4]; first compound 8 µM)	relative viability ([5]; first compound 0.8 µM)	relative viability ([5]; first compound 2.53 µM)	relative viability ([5]; first compound 8 µM)
NCI-H520	0.231	0.254	0.236	0.307	0.266	0.283	0.312	0.314	0.359	0.244	0.315	0.344	0.351	0.333	0.346	0.32	–	–	–
NCI-H596	–	–	–	0.345	0.394	0.375	0.372	0.287	0.675	0.669	0.616	0.672	0.569	0.634	0.681	0.651	1.04	0.946	0.933
SW 900	0.409	0.421	0.5	–	–	–	–	–	0.96	0.809	0.72	0.789	0.807	0.838	0.901	0.706	0.609	0.53	0.709
Calu-6	–	–	–	1.1	0.97	0.934	0.866	0.91	0.568	0.576	0.599	0.611	0.604	0.562	0.58	0.571	–	–	–
A549	–	–	–	0.551	0.485	0.477	0.504	0.323	0.308	0.295	0.297	0.367	0.303	0.299	0.278	0.204	–	–	–
